From patent US20190134129A1, “METHOD FOR ALLEVIATING ULTRAVIOLET DAMAGE WITH ETHYL ACETATE-EXTRACTED PRODUCT OF SEDUM FORMOSANUM” (Sinotai Oncology Associate., Ltd., priority 2017, published 2019)

System: HaCaT cells
Assay: Apoptosis assay (FITC Annexin V/PI) of UV- or X-ray-irradiated HaCaT cells
Type: cell-based, human
Settings: UV 50 mJ/cm^2, 48 hours
Excerpt: A. Test Sample Pretreatment and Irradiation Treatment

## O=c1c(O[C@@H]2O[C@H](CO)[C@@H](O)[C@H](O)[C@H]2O)c(-c2ccc(O)cc2)oc2cc(O)cc(O)c12 [astragalin]
125 μg/mL pretreatment
  Apoptosis percentage (%): 22.37 ± 3.32%
250 μg/mL pretreatment
  Apoptosis percentage (%): 69.07 ± 5.07%

## O=c1cc(-c2ccc(O)cc2)oc2c([C@@H]3O[C@H](CO)[C@@H](O)[C@H](O)[C@H]3O)c(O)cc(O)c12 [vitexin]
125 μg/mL pretreatment
  Apoptosis percentage (%): 20.00 ± 0.73%
250 μg/mL pretreatment
  Apoptosis percentage (%): 70.93 ± 1.52%
